How the values were obtained:
[1] = system: PC3 (human prostate cancer); assay: Crystal Violet viability assay, PC3; type: cell-based
Source text: (§1) Three different viability assays were chosen to complement each other and yielded results dependent on concentration and cell line: the Methyl Tetrazolium dye assay, the Sulforhodamine B fluorescent dye assay, and the Crystal Violet dye assay.
The Sulforhodamine B and Crystal Violet assays provide information about protein and were used to complement the Methyl-Tetrazolium dye assay. […] It is used for the quantification of cellular proteins of cultured cells. The assay using Crystal Violet, a dye that binds electrostatically to proteins and stains DNA, provides a reliable, simple assay for measuring viability of cells.
(§2) The Methyl Tetrazolium, Sulforhodamine B, and Crystal Violet assays were used to assess cell viabilities. The incubation times were 24 hours, 48 hours, and 72 hours. The Nerium oleander extract Anvirzel™ (a hot water extract of oleander obtained from Salud Integral, Honduras) was tested in concentrations ranging from 0.01 ng/mL to 10 ng/mL.
(§3) Cells were detached by trypsinization (Trypsin-0.25% EDTA, Invitrogen, 25200-072) during the logarithmic phase of culture growth and plated in 96-well plates (18.000 cells/well) (Corning, Costar 359) in a final volume of 200 μl of medium per well. […] The absorbance was measured after 24 hours, 48 hours, and 72 hours of incubation.
For the Crystal Violet assay, the medium was removed from the 96-well plates, the plates rinsed with PBS (Sigma, P3813) and then the cells were […] by the addition of 10% formalin (MERCK, 1.04003.2500) for 20 minutes at RT. Formalin was removed and 0.25% aqueous crystal violet (Sigma, HT901), dissolved in water, was added for 10 minutes at RT. Unbound Crystal Violet was rinsed by washing with water and finally 33% acetic acid was added to dissolve the dye.
(§4) The optical density of each plate was measured on a μQuant spectrophotometer and the data were analyzed with Gen5 software (μQuant Biomolecular Spectrophotometer MQX200 and Gen5™ Microplate Data Collection & Analysis software, BioTek® Instruments. Inc, April 2008). Absorbance was measured at 570 nm for all assays and a second wavelength was measured in order to subtract noise. For the Methyl-Tetrazolium assay this second wavelength was 630 nm and for the Sulforhodamine B and Crystal Violet assays it was 690 nm.

[2] = system: HCT-116 (colorectal cancer); assay: Methyl-Tetrazolium viability assay, HCT-116; type: cell-based, human; set-up: key: absorbance (optical density) at 570 nm, second wavelength subtracted; conditions: for Average MTT: HCT-116
Source text: as §1
The Methyl-Tetrazolium dye assay measures the activity of enzymes in mitochondria. The dye precursor is taken up by cells, where it undergoes reduction to the purple formazan. It measures only the mitochondrial activity and, thus, it is not always a reliable indication of whether the cells themselves are alive or dead, since even a recently dead cell has […] enzyme activity in mitochondria. Intracellular glucose concentration, pH, and time before assay all affect the measurements.
as §2, §3
For the Methyl-Tetrazolium assay, the dye (Sigma, M2128; 5 mg/mL, diluted in phosphate-buffered saline) was added to each well and plates were incubated for 3 hours at 37° C. After the end of the incubation period, the medium was discarded and the cells were rinsed with phosphate-buffered saline. Finally, the formazan crystals were dissolved in dimethylsulphoxide (Sigma, D4540).
as §4

N.N.[Cl][Pt][Cl] [cisplatin]
CVE Average ([1]; PC3 Run 1, 24 h, 0.1 μg/ml CDDP): 0.73 | CVE Average ([1]; PC3 Run 1, 24 h, 1 μg/ml CDDP): 0.368 | CVE Average ([1]; PC3 Run 1, 24 h, 10 μg/ml CDDP): 0.548 | CVE Average ([1]; PC3 Run 1, 24 h, 100 μg/ml CDDP): 0.337 | CVE Average ([1]; PC3 Run 1, 48 h, 0.1 μg/ml CDDP): 0.938 | CVE Average ([1]; PC3 Run 1, 48 h, 1 μg/ml CDDP): 0.483 | CVE Average ([1]; PC3 Run 1, 48 h, 10 μg/ml CDDP): 0.706 | CVE Average ([1]; PC3 Run 1, 48 h, 100 μg/ml CDDP): 0.619 | CVE Average ([1]; PC3 Run 1, 72 h, 0.1 μg/ml CDDP): 1.091 | CVE Average ([1]; PC3 Run 1, 72 h, 1 μg/ml CDDP): 0.415 | CVE Average ([1]; PC3 Run 1, 72 h, 10 μg/ml CDDP): 0.64 | CVE Average ([1]; PC3 Run 1, 72 h, 100 μg/ml CDDP): 0.421 | CVE Average ([1]; PC3 Run 2, 24 h, 0.1 μg/ml CDDP): 0.489 | CVE Average ([1]; PC3 Run 2, 24 h, 1 μg/ml CDDP): 0.238 | CVE Average ([1]; PC3 Run 2, 24 h, 10 μg/ml CDDP): 0.498 | CVE Average ([1]; PC3 Run 2, 24 h, 100 μg/ml CDDP): 0.309 | CVE Average ([1]; PC3 Run 2, 48 h, 0.1 μg/ml CDDP): 0.714 | CVE Average ([1]; PC3 Run 2, 48 h, 1 μg/ml CDDP): 0.393 | CVE Average ([1]; PC3 Run 2, 48 h, 10 μg/ml CDDP): 0.694 | CVE Average ([1]; PC3 Run 2, 48 h, 100 μg/ml CDDP): 0.419 | CVE Average ([1]; PC3 Run 2, 72 h, 0.1 μg/ml CDDP): 0.76 | CVE Average ([1]; PC3 Run 2, 72 h, 1 μg/ml CDDP): 0.284 | CVE Average ([1]; PC3 Run 2, 72 h, 10 μg/ml CDDP): 0.526 | CVE Average ([1]; PC3 Run 2, 72 h, 100 μg/ml CDDP): 0.316 | CVE Average ([1]; PC3 Run 3, 24 h, 0.1 μg/ml CDDP): 0.653 | CVE Average ([1]; PC3 Run 3, 24 h, 1 μg/ml CDDP): 0.551 | CVE Average ([1]; PC3 Run 3, 24 h, 10 μg/ml CDDP): 0.638 | CVE Average ([1]; PC3 Run 3, 24 h, 100 μg/ml CDDP): 0.301 | CVE Average ([1]; PC3 Run 3, 48 h, 0.1 μg/ml CDDP): 0.599 | CVE Average ([1]; PC3 Run 3, 48 h, 1 μg/ml CDDP): 0.4 | CVE Average ([1]; PC3 Run 3, 48 h, 10 μg/ml CDDP): 0.599 | CVE Average ([1]; PC3 Run 3, 48 h, 100 μg/ml CDDP): 0.367 | CVE Average ([1]; PC3 Run 3, 72 h, 0.1 μg/ml CDDP): 0.927 | CVE Average ([1]; PC3 Run 3, 72 h, 1 μg/ml CDDP): 1.001 | CVE Average ([1]; PC3 Run 3, 72 h, 10 μg/ml CDDP): 0.666 | CVE Average ([1]; PC3 Run 3, 72 h, 100 μg/ml CDDP): 0.282 | MTT Average ([2]; HCT-116, Run 3, 24 h, 0.1 μg/ml CDDP): 0.16 | MTT Average ([2]; HCT-116, Run 3, 24 h, 1 μg/ml CDDP): 0.041 | MTT Average ([2]; HCT-116, Run 3, 24 h, 10 μg/ml CDDP): 0.09 | MTT Average ([2]; HCT-116, Run 3, 24 h, 100 μg/ml CDDP): 0.044 | MTT Average ([2]; HCT-116, Run 3, 48 h, 0.1 μg/ml CDDP): 0.302 | MTT Average ([2]; HCT-116, Run 3, 48 h, 1 μg/ml CDDP): 0.039 | MTT Average ([2]; HCT-116, Run 3, 48 h, 10 μg/ml CDDP): 0.108 | MTT Average ([2]; HCT-116, Run 3, 48 h, 100 μg/ml CDDP): 0.037 | MTT Average ([2]; HCT-116, Run 3, 72 h, 0.1 μg/ml CDDP): 0.385 | MTT Average ([2]; HCT-116, Run 3, 72 h, 1 μg/ml CDDP): 0.041 | MTT Average ([2]; HCT-116, Run 3, 72 h, 10 μg/ml CDDP): 0.147 | MTT Average ([2]; HCT-116, Run 3, 72 h, 100 μg/ml CDDP): 0.043 | Average MTT ([2]; Run 1, 24 h, 0.1 μg/ml CDDP): 0.215 | Average MTT ([2]; Run 1, 24 h, 1 μg/ml CDDP): 0.037 | Average MTT ([2]; Run 1, 24 h, 10 μg/ml CDDP): 0.072 | Average MTT ([2]; Run 1, 24 h, 100 μg/ml CDDP): 0.038 | Average MTT ([2]; Run 1, 48 h, 0.1 μg/ml CDDP): 0.184 | Average MTT ([2]; Run 1, 48 h, 1 μg/ml CDDP): 0.027 | Average MTT ([2]; Run 1, 48 h, 10 μg/ml CDDP): 0.054 | Average MTT ([2]; Run 1, 48 h, 100 μg/ml CDDP): 0.031 | Average MTT ([2]; Run 1, 72 h, 0.1 μg/ml CDDP): 0.332 | Average MTT ([2]; Run 1, 72 h, 1 μg/ml CDDP): 0.03 | Average MTT ([2]; Run 1, 72 h, 10 μg/ml CDDP): 0.033 | Average MTT ([2]; Run 1, 72 h, 100 μg/ml CDDP): 0.031 | Average MTT ([2]; Run 2, 24 h, 0.1 μg/ml CDDP): 0.111 | Average MTT ([2]; Run 2, 24 h, 1 μg/ml CDDP): 0.053 | Average MTT ([2]; Run 2, 24 h, 10 μg/ml CDDP): 0.081 | Average MTT ([2]; Run 2, 24 h, 100 μg/ml CDDP): 0.072 | Average MTT ([2]; Run 2, 48 h, 0.1 μg/ml CDDP): 0.179 | Average MTT ([2]; Run 2, 48 h, 1 μg/ml CDDP): 0.044 | Average MTT ([2]; Run 2, 48 h, 10 μg/ml CDDP): 0.045 | Average MTT ([2]; Run 2, 48 h, 100 μg/ml CDDP): 0.04 | Average MTT ([2]; Run 2, 72 h, 0.1 μg/ml CDDP): 0.296 | Average MTT ([2]; Run 2, 72 h, 1 μg/ml CDDP): 0.054 | Average MTT ([2]; Run 2, 72 h, 10 μg/ml CDDP): 0.045 | Average MTT ([2]; Run 2, 72 h, 100 μg/ml CDDP): 0.037

Reference: patent US20190343908A1, “Therapeutic Combination for the Treatment of Cancer” (Nerium Biotechnology Inc., priority 2011, published 2019)
